Source: article PMC10608985, “Retention Behavior of Anticancer Thiosemicarbazides in Biomimetic Chromatographic Systems and In Silico Calculations” (Molecules, 2023)

Experiments:
[1] = biological target: T1, human serum albumin (HSA) (Homo sapiens, UniProt P02768); experiment: HPLC on immobilized HSA column, affinity and % plasma–protein binding; type: in vitro ADME; settings: for log K HSA: binding equilibrium constant from calibration curve (Equation 8) of log k HSA; for fraction unbound: human, pH 7.4, % plasma–protein binding converted from log K HSA (Equation 10), read-out: %PPB HSA (converted); for log k HSA: retention on HSA column, 50 mM ammonium acetate pH 7.4 / propan-2-ol 85/15 (v/v)
T1 construct: purchased Chiralpac
T1 sequence (P02768 25-609): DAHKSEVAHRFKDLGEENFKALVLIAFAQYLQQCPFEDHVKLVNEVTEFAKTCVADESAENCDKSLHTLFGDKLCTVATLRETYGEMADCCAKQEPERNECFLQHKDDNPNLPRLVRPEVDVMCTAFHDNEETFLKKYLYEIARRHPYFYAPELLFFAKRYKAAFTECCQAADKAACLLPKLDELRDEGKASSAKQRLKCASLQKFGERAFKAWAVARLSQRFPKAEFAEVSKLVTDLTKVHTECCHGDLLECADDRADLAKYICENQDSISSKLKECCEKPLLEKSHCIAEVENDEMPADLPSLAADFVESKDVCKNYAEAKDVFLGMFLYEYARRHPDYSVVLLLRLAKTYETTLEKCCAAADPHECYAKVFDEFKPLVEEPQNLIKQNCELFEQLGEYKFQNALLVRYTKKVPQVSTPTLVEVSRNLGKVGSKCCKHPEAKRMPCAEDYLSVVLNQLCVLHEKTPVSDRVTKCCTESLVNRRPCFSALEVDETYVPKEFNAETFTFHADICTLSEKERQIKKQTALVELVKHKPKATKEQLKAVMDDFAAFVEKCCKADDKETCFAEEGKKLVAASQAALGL
Experimental: (§1) Measurements on HSA and AGP immobilized protein columns were carried out with […] isopropanol content in the aqueous mobile phase.
(§2) The standard calibration curve was used to predict log K values (K—binding equilibrium constant) of investigated compounds to HSA and AGP. Next, the log K values were converted into a percentage of plasma–protein binding (%PPB) of the compounds (Table 2). […] It is the lowest for compound 16 with -NO2 substituent, unsubstituted compound 1, and fluorine derivatives 2 and 9. In a group of […] derivatives in the same position of the phenyl ring, the %PPB to AGP increases with the increase in the atomic weight of the halogen atom and the lipophilicity of the molecule.
(§3) HPLC measurements were performed using a liquid chromatograph Knauer (Knauer, Berlin, Germany) with a dual pump, a 20 µL simple injection valve, and a UV–visible detector. The compounds were detected under UV light at 280 nm at room temperature. The retention time of an unretained solute (t0) was determined by the injection of a small amount of citric acid dissolved in water.
(§4) A human serum albumin (HSA) immobilized on the 5 µm silica gel column 100 × 3 mm (Chiralpac) and an α1-acid glycoprotein (AGP) immobilized on the 5 µm silica gel column 100 × 4 mm (Chiralpac) were used. The compounds were dissolved at 0.5 mg/mL concentration in 50% propan-2-ol and ammonium acetate solution (pH = 7.4) mixtures for HSA measurements. The mobile phase was composed of 50 mM ammonium acetate solution (pH = 7.4) and propan-2-ol at 85/15 (v/v) for AGP, respectively. The flow of mobile phases was 0.5 mL×min^−1. Log k values for the selected mobile phase were determined for all studied compounds and standard substances. The % protein plasma binding (% PPB) values were calculated from the calibration curve according to Valko et al..
(§5) Calibration of the protein columns: The column performance check and the calibration check were performed before measurements. The racemic mixture of warfarin was used for their performance evaluation. The following calibration set of drugs was applied: bromazepam, carbamazepine, diclofenac, nicardipine, nizatidine, piroxicam for HSA and bromazepam, chlorpromazine, imipramine, nicardipine, nizatidine, propranolol, and warfarin for AGP. The analytical standards were purchased from Sigma Aldrich Steinhen, Steinheim am Albuch, Germany). The drugs were dissolved at 0.5 mg/mL concentration in 50% propan-2-ol and ammonium acetate solution mixtures (pH = 7.4). The obtained log k values from HPLC were plotted against the log K values (K—binding equilibrium constant, log K—linearized PPB) based on the literature data for plasma–protein binding (%, PPB). The following relationships were obtained: log KHSA = 0.2513 (±0.0984) + 1.0525 (±0.1171) log k HSA(8) n=6, R=0.9761, R^2 = 0.9528, Radj2 = 0.9410, s = 0.1948 log KAGP = 0.1733 (±0.0574) + 0.8902 (±0.0787) log k AGP(9) n=7, R=0.9810, R^2 = 0.9623, Radj2 = 0.9548, s = 0.1113
(§6) Log K values were converted into %PPB using the following equation [15]:(10) %PPB=101×10^logK/1+10^logK

[2] = set-up: method as in Kozyra et al. [31]; settings: MeOH/20 mM acetate buffer, pH 7.4, ref Kozyra et al. [31], cited from earlier work; for log kw C-18: intercept of Soczewiński–Wachtmeister equation (water as mobile phase); for -S C-18: slope of Soczewiński–Wachtmeister equation
[3] = system: α1-acid glycoprotein (AGP); experiment: HPLC on immobilized AGP column, affinity and % plasma–protein binding; type: in vitro ADME, human; settings: for log K AGP: binding equilibrium constant from calibration curve (Equation 9) of log k AGP; for fraction unbound: human, pH 7.4, % plasma–protein binding converted from log K AGP (Equation 10), read-out: %PPB AGP (converted); for log k AGP: retention on AGP column, 50 mM ammonium acetate pH 7.4 / propan-2-ol 85/15 (v/v)
Experimental: as §1, §2, §3, §4, §5, §6

[4] = HPLC lipophilicity on cholesterol (Chol) stationary phase; type: physicochemical; settings: pH 7.4; for Log k Chol: Table S3; for log kw Chol: intercept, linear extrapolation to water; for log kw Chol / -S Chol: MeOH/20 mM acetate buffer; for -S Chol: slope of Soczewiński–Wachtmeister equation
Experimental: (§7) For the evaluation of the compounds the following stationary phases were used: C-18; biomimetic, IAM; cholesterol (Chol); immobilized proteins HSA and AGP. For the lipophilicity determination, MeOH (C-18, Chol) or ACN (IAM) were applied as the organic modifiers. The measurements were performed at pH 7.4 of the mobile phase. The regular changes in the retention of all solutes used as organic modifier content in the mobile phase on three studied stationary phases were found. It is expressed by the Soczewiński–Wachtmeister Equation (1):log k = log kw + S (% organic modifier)(1) where log kw—the intercept; S—the slope of regression curve. […] Log kw as well as S parameters are commonly applied as lipophilicity descriptors.
as §3
Cogent 4 UDC Cholesterol (150 × 2.1 mm, 4 µm) MicroSolv Technology Corporation (Leland, NC, USA) column was used. The mobile phase consisted of different volume mixtures of MeOH as the organic modifier and 20 mM acetate buffer as the aqueous phase, to obtain pH = 7.4. The concentrations of the organic modifier were in the range from 0.3 to 0.8 (v/v) with step 0.05 or 0.1 (Table S3 in the Supplementary Materials). The flow rate was 0.35 mL × min^−1.

[5] = HPLC lipophilicity on IAM (immobilized artificial membrane, phosphatidylcholine) stationary phase; type: physicochemical; settings: pH 7.4; for Log k IAM: Table S2; for log kw IAM: intercept, linear extrapolation to water; for log kw IAM / -S IAM: ACN/20 mM phosphate buffer; for -S IAM: slope of Soczewiński–Wachtmeister equation
Experimental: as §7, §3
A Rexchrom IAM.PC.DD2 (12 μm, 100 × 4.6 mm, 300 Å) (Regis Technologies, Morton Grove, IL, USA) column was used as the stationary phase. The compounds were dissolved at a concentration of 0.5 mg × mL^−1 in MeOH. The mobile phases consisted of different volume fractions of ACN and 20 mM phosphate buffer; the aqueous phase maintained a pH = 7.4 (0.02 M KH2PO4, Na2HPO4 and 0.15 M KCl). The acetonitrile concentration ranged from 0.05 to 0.4 (v/v), depending on the structure of compound, at 0.05 intervals (Table S2 in the Supplementary Materials). The flow rate was 1 mL × min^−1.

Structure (SMILES) | log K HSA [1] | log k HSA [1] | log kw C-18 [2] | -S C-18 [2] | log K AGP [3] | fraction unbound [3] | log k AGP [3] | Log k Chol ([4]; MeOH 0.40 v/v in mobile phase) | Log k Chol ([4]; MeOH 0.45 v/v in mobile phase) | Log k Chol ([4]; MeOH 0.50 v/v in mobile phase) | Log k Chol ([4]; MeOH 0.60 v/v in mobile phase) | Log k Chol ([4]; MeOH 0.80 v/v in mobile phase) | log kw Chol [4] | -S Chol [4] | Log k IAM ([5]; ACN 0.15 v/v in mobile phase) | Log k IAM ([5]; ACN 0.20 v/v in mobile phase) | Log k IAM ([5]; ACN 0.25 v/v in mobile phase) | Log k IAM ([5]; ACN 0.30 v/v in mobile phase) | Log k IAM ([5]; ACN 0.35 v/v in mobile phase) | log kw IAM [5] | also measured
O=C(COc1ccccc1)NNC(=S)Nc1ccc(F)cc1 [Compound 9] | 1.2852 | 0.9823 | 2.1145 | 4.2984 | 0.3891 | 0.283 | 0.2424 | 0.696 | 0.523 | 0.179 | -0.078 | -0.997 | 2.4029 | 4.2398 | 0.336 | 0.088 | -0.150 | -0.484 | -0.467 | 1.1652 | fraction unbound [1]: 0.04; Log k Chol ([4]; MeOH 0.30 v/v in mobile phase): 1.111; Log k Chol ([4]; MeOH 0.35 v/v in mobile phase): 0.970; Log k IAM ([5]; ACN 0.05 v/v in mobile phase): 1.054; Log k IAM ([5]; ACN 0.10 v/v in mobile phase): 0.588; -S IAM [5]: 5.1370
O=C(COc1ccccc1)NNC(=S)Nc1ccc(Cl)cc1 [Compound 10] | 1.9333 | 1.5981 | 2.5914 | 4.5132 | 0.5075 | 0.23 | 0.3754 | 1.050 | 0.836 | 0.479 | 0.206 | -0.946 | 2.9842 | 4.8387 | 1.009 | 0.673 | 0.368 | -0.038 | -0.210 | 1.8779 | fraction unbound [1]: 0.002; Log k Chol ([4]; MeOH 0.30 v/v in mobile phase): 1.475; Log k Chol ([4]; MeOH 0.35 v/v in mobile phase): 1.331; Log k Chol ([4]; MeOH 0.70 v/v in mobile phase): -0.396; Log k IAM ([5]; ACN 0.10 v/v in mobile phase): 1.235; -S IAM [5]: 6.0976
O=C(COc1ccccc1)NNC(=S)Nc1ccc(Br)cc1 [Compound 11] | 2.0248 | 1.685 | 2.734 | 4.6183 | 0.6344 | 0.18 | 0.518 | 1.158 | 0.871 | 0.571 | 0.276 | -0.886 | 3.1674 | 5.0251 | 1.141 | 0.792 | 0.453 | 0.004 | -0.111 | 2.1020 | Log k Chol ([4]; MeOH 0.35 v/v in mobile phase): 1.437; -S IAM [5]: 6.5856
O=C(COc1ccccc1)NNC(=S)Nc1ccc(I)cc1 [Compound 12] | 2.1778 | 1.8304 | 2.9681 | 4.8352 | 0.8378 | 0.118 | 0.7465 | 1.303 | 1.049 | 0.685 | 0.404 | -0.783 | 3.3300 | 5.0829 | 1.352 | 0.951 | 0.655 | 0.141 | -0.016 | 2.3341 | Log k Chol ([4]; MeOH 0.70 v/v in mobile phase): -0.214; Log k IAM ([5]; ACN 0.40 v/v in mobile phase): -0.358; -S IAM [5]: 6.8364
